{"source": "patent US20030095982A1", "about": "“Fraction of Cordyceps sinensis and method of isolation thereof” (priority 2001, published 2003)", "key": {"[1]": {"tested_on": "ovalbumin (OA) induced bronchial hyperresponsiveness", "assay": "Bronchoalveolar lavage cell counts, OA model in BALBc mice", "type": "in vivo", "experimental": "After completion of the pulmonary function tests, BAL was performed using 1 mL normal saline twice (total 2 mL). The BAL fluid was collected into plastic flasks containing 1,500 units of heparin and then strained through 1 layer of surgical gauze and centrifuged at 500 g for 5 min. The cell pellet was washed 3 times with sterile saline solution and resuspended in RPMI-1640. A small portion was taken for evaluation of cell number and viability, as assessed by trypan blue exclusion.\nDifferential counts were obtained using a cytocentrifuge preparation (Cytospin; Shandon Southern Instruments, Sewickley, Pa.) stained with Liu's stain (modified May-Giemsa stain)."}, "[2]": {"tested_on": "IFNγ (Th-1 related), IL-4, IL-5, IL-10 (Th-2 related) and iNOS mRNA", "assay": "Cytokine and iNOS mRNA in lung tissue by RT-PCR", "type": "in vivo, brown Norway rats (BNR)", "conditions": "prophylactic and therapeutic treatment, OA asthma model", "experimental": "The in vivo role of F-4 and F8 of Th1/Th2 cytokines by […] mRNA in lung tissue and nuclear factor (NF)κ B activity using an electromobility shift assay (EMSA)\nTotal RNA was extracted from lung tissue samples by a method described previously and RT-PCR was performed using a RT-PCR kit (Clontech, USA). The following T-cell related cytokines were evaluated by measuring their mRNA expression: IFNγ (Th-1 related) and IL-4, IL-5 and IL-10 (all Th-2 related) and inducible nitric oxide synthase (iNOS).\nBriefly, 2 μg of RNA in a 25 μl volume was first primed with 2 μl oligo-(dT)18 primer, 20 μM, at 70° C. for 2 min and then kept on ice for 5 min. after the reaction, a mixture containing the following: 8 μl of 5×reaction buffer; 2 μl, dNTP mix […] (each); 1 μl recombinant Rnase inhibitor, 40 units/μ1; and 2 μl MMLV reverse transcriptase, 200 units/μ1, was added to synthesize cDNA. cDNA was amplified by 40 PCR cycles; each consisting of a denaturation step (94° C. for 1 min), an annealing step (65˜55° C. for 1 min, 0.5° C./cycle touch down, 55° C. for 19 cycles), and an extension step (72° C. for 1 min). During the last cycle the 72° C. step was extended to 5 min. The PCR product was analyzed on 2% agarose gel electrophoresis. The identity of each cytokine cDNA was determined by the size of the PCR product obtained by electrophoresis, and confirmed by DNA sequencing of the PCR products. […]"}, "[3]": {"conditions": "BAL fluid, BALBc mice, 4 mg/Kg intraperitoneally 30 minutes before OA inhalation provocation"}}}
{"smiles": "CC(C)[C@@H](C)C=C[C@@H](C)[C@H]1CC[C@H]2C3=C[C@@H](O)[C@@]4(O)C[C@@H](O)CC[C@]4(C)[C@H]3CC[C@]12C", "note": "[F8, (24R)-ergosta-7,22-diene-3β, 5α, 6β,-triol]", "values": [{"measurement": "Eosinophil Cell count", "setting": "[1]; [3]", "result": "0.12 ± 0.04 (×10^4)/mL"}, {"measurement": "Eosinophil Percentage of total cell count (%)", "setting": "[1]; [3]", "result": "6.3 ± 1.6", "unit": "%"}, {"measurement": "Lymphocyte Cell count", "setting": "[1]; [3]", "result": "0.10 ± 0.04 (×10^4)/mL"}, {"measurement": "Lymphocyte Percentage of total cell count (%)", "setting": "[1]; [3]", "result": "5.2 ± 1.6", "unit": "%"}, {"measurement": "Macrophage Cell count", "setting": "[1]; [3]", "result": "1.82 ± 0.21 (×10^4)/mL"}, {"measurement": "Macrophage Percentage of total cell count (%)", "setting": "[1]; [3]", "result": "84.2 ± 3.4", "unit": "%"}, {"measurement": "Neutrophil Cell count", "setting": "[1]; [3]", "result": "0.13 ± 0.03 (×10^4)/mL"}, {"measurement": "Neutrophil Percentage of total cell count (%)", "setting": "[1]; [3]", "result": "5.1 ± 1.0", "unit": "%"}, {"measurement": "Total cell count", "setting": "[1]; [3]", "result": "2.23 ± 0.64 (×10^4)/mL"}, {"measurement": "BAL total cell counts, eosinophils and lymphocytes versus group II", "setting": "[1]; mice, treatment study (administered after OA challenge)", "result": "Group II had higher total cell counts than other 2 groups"}, {"measurement": "Th1 cytokines expression", "setting": "[2]", "result": "enhance Th1 cytokines expression"}, {"measurement": "Th2 cytokines and iNOS gene mRNA expression", "setting": "[2]", "result": "decrease Th2 cytokines and INOS gene mRNA expression"}]}
